Results reported in the Kinase Knowledgebase extract (Sharma et al. 2016).

Target: CDK2 (UniProt P24941)
Test: Enzyme Assay

SMILES | IC50 [nM]
O=C1Nc2ncc(Br)cc2/C1=C/Nc1ccc2cn[nH]c2c1 | 10 to 100
O=C1Nc2ncc(Br)cc2/C1=C/Nc1ccc2ncccc2c1 | 10 to 100
NS(=O)(=O)c1ccc(N/C=C2\C(=O)Nc3ncc(-c4ccsc4)cc32)cc1 | 100 to 1000
CCOC(=O)c1cnc2c(c1)/C(=C/Nc1ccc3cn[nH]c3c1)C(=O)N2 | 10 to 100
NS(=O)(=O)c1ccc(N/C=C2\C(=O)Nc3ncccc32)cc1 | 100 to 1000
O=C1Nc2nc(Cl)ccc2/C1=C/Nc1ccc2cn[nH]c2c1 | 100 to 1000
O=C1Nc2ncc(-c3ccco3)cc2/C1=C/Nc1ccc2cn[nH]c2c1 | 1000 to 10000
CCOC(=O)c1cnc2c(c1)/C(=C\Nc1ccc3ncccc3c1)C(=O)N2 | 100 to 1000
NS(=O)(=O)c1ccc(N/C=C2\C(=O)Nc3ncc(-c4ccco4)cc32)cc1 | 10 to 100
NS(=O)(=O)c1ccc(N/C=C2\C(=O)Nc3ncc(-c4ccccc4)cc32)cc1 | 1000 to 10000
NS(=O)(=O)c1ccc(N/C=C2\C(=O)Nc3cnccc32)cc1 | 10 to 100
NS(=O)(=O)c1ccc(N/C=C2\C(=O)Nc3ccncc32)cc1 | 10 to 100
NS(=O)(=O)c1ccc(N/C=C2\C(=O)Nc3nc(Cl)ccc32)cc1 | 100 to 1000
NS(=O)(=O)c1ccc(N/C=C2\C(=O)Nc3ncc(Br)cc32)cc1 | 10 to 100
CCOC(=O)c1cnc2c(c1)/C(=C/Nc1ccc(S(N)(=O)=O)cc1)C(=O)N2 | 10 to 100
O=C1Nc2ncc(-c3ccsc3)cc2/C1=C/Nc1ccc2cn[nH]c2c1 | 100 to 1000
